This is an account of results in ChEMBL document CHEMBL1154245, “Parazoanthines A-E, hydantoin alkaloids from the Mediterranean sea anemone Parazoanthus axinellae” (J Nat Prod, 2009).

Activity calls are given as the source filed them. The rule behind the calls is not given here.

One assay has as its system A549. As to the kind of experiment: Antitumor activity against human A549 cells. In kind it is functional, cell-based.
The next assay relates to Plasmodium falciparum. As to the kind of experiment: Antimalarial activity against Plasmodium falciparum FcB1. In kind it is functional, organism-based. The following applies: FcB1/Columbia.
The subject of another assay is HT-29. As to the kind of experiment: Antitumor activity against human HT-29 cells. It is filed as functional, cell-based.
In another assay the test system is MDA-MB-231. As to the kind of experiment: Antitumor activity against human MDA-MB-231 cells. It is filed as functional, cell-based.
Assay [1] can be described thus: Toxicity against Ircinia variabilis.
The nature of assay [2]: Toxicity against Dysidea avara.

As to `N=C(N)NCCC[C@@H]1NC(=O)N(/C=C/c2ccc(O)cc2)C1=O`, the result with A549, in the assay on Plasmodium falciparum, in the assay with HT-29 and with MDA-MB-231 was inactive.

With `COc1ccc(/C=C/N2C(=O)N/C(=C\CCNC(=N)N)C2=O)cc1Br`, the outcome with A549, in the assay on Plasmodium falciparum, with HT-29 and in the assay on MDA-MB-231 was inactive.

Turning to `COc1ccc(/C=C/N2C(=O)N[C@@H](CCCNC(=N)N)C2=O)cc1Br`, the outcome in the assay on A549, in the assay with Plasmodium falciparum, in the assay with HT-29 and with MDA-MB-231 was inactive.

By EC50 is commonly meant the midpoint of the concentration-response curve. A high value points to a need for much substance. Consider `COc1ccc(/C=C/N2C(=O)N/C(=C\CCNC(=N)N)C2=O)cc1` [PARAZOANTHINE C], for which the result in the assay with A549, in the assay on Plasmodium falciparum, in the assay on HT-29 and in the assay on MDA-MB-231 was inactive. For the same molecule, the EC50 in assay [1] and in assay [2] was 1.64 µM in each case.

For `N=C(N)NCC/C=C1\NC(=O)N(/C=C/c2ccc(O)cc2)C1=O`, the outcome in the assay on A549, in the assay on Plasmodium falciparum, in the assay with HT-29 and in the assay on MDA-MB-231 was inactive.
